Test results from patent US20150314021A1, “STERILIZATION METHOD COMPRISING STERILIZATION FLUID AND ULTRASONICALLY GERERATED CAVITATION MICROBUBBLES” (DEVIS TECHNOLOGIES INC., priority 2012, published 2015).
Read-outs that look alike come from different tables or passages of the source.

Test system: Bacillus atrophaeus and Bacillus stearothermophilus
Conditions: H2O2 alone (no ultrasound)

`OO` [Hydrogen Peroxide, hydrogen peroxide] was tested, and the “reduction in cell count” value (1 min exposure) was 50.02% and the “reduction in cell count” value (5 min exposure) was 50.12%.
